In experiment [1] the test system is contractile response to bradykinin (isolated guinea pig ileum). The experiment is described as follows: Augmentation of contractile response of isolated guinea pig ileum to bradykinin. The format is cell-based. The conditions noted are these: Cavia porcellus, bradykinin 0.005 μg/ml; compound added 5 min before; 30° C.; read-out: Bradykinin AC50 (50% augmentation of bradykinin activity inducing the contraction of guinea pig ileum). The procedure:
(§1) Isolated guinea pig ileum was suspended in the organ bath containing 20 ml of Tyrode's solution of 30° C. gassed with 95% O2 +5% CO2. The contraction induced by the addition of angiotensin I (0.1 μg/ml) at intervals of 10 minutes was recorded on a recticorder (Nihon Koden) for 90 seconds using FD pick up (ST-1T-H, Nihon Koden).
(§2) The test compounds were added to the bath 5 minutes before the addition of angiotensin I.
From the fact that kininase II, which destroys bradykinin having contractive action on isolated guinea pig ileum, is thought to be identical with angiotensin I-converting enzyme, augmentation of the contractile response to bradykinin by test compounds was examined by using bradykinin (0.005 μg/ml) in place of angiotensin I according to the above mentioned method.

The test system of experiment [2] is contractile response of isolated guinea pig ileum to angiotensin I. As to the kind of experiment: Inhibition of contractile response of isolated guinea pig ileum to angiotensin I. The format is cell-based. Particulars: Cavia porcellus, angiotensin I 0.1 μg/ml; compound added 5 min before; 30° C.; read-out: Angiotensin I IC50 (50% inhibition of angiotensin I activity inducing the contraction of guinea pig ileum).
Text: As the method of measurement of angiotensin I-converting enzyme activity, bioassay for the contractile response of isolated smooth muscle or the pressor response of normal animals and biochemical assay for the enzyme isolated from lung or other organs of animals are known. The former is found more advantageous than the latter for the examination of the convertion of angiotensin I to angiotensin II in vivo.
In the present study, therefore, we adopted the bioassay for contractile response of isolated guinea pig ileum to angiotensin I.
(§3) Measurement of inhibitory activity of angiotensin I-converting enzyme
as §1, §2
The inhibitory activity of angiotensin I-converting enzyme was calculated by the following formula. [formula] A: contractile intensity of angiotensin I before addition of the compound B: contractile intensity of angiotensin I after addition of the compound

For experiment [3], the target named is T1, angiotensin I-converting enzyme (Oryctolagus cuniculus, UniProt P12822).
T1 construct: angiotensin I-converting enzyme extracted from rabbit lung; from tissue; host or cells: rabbit lung
T1 sequence (P12822 34-1310): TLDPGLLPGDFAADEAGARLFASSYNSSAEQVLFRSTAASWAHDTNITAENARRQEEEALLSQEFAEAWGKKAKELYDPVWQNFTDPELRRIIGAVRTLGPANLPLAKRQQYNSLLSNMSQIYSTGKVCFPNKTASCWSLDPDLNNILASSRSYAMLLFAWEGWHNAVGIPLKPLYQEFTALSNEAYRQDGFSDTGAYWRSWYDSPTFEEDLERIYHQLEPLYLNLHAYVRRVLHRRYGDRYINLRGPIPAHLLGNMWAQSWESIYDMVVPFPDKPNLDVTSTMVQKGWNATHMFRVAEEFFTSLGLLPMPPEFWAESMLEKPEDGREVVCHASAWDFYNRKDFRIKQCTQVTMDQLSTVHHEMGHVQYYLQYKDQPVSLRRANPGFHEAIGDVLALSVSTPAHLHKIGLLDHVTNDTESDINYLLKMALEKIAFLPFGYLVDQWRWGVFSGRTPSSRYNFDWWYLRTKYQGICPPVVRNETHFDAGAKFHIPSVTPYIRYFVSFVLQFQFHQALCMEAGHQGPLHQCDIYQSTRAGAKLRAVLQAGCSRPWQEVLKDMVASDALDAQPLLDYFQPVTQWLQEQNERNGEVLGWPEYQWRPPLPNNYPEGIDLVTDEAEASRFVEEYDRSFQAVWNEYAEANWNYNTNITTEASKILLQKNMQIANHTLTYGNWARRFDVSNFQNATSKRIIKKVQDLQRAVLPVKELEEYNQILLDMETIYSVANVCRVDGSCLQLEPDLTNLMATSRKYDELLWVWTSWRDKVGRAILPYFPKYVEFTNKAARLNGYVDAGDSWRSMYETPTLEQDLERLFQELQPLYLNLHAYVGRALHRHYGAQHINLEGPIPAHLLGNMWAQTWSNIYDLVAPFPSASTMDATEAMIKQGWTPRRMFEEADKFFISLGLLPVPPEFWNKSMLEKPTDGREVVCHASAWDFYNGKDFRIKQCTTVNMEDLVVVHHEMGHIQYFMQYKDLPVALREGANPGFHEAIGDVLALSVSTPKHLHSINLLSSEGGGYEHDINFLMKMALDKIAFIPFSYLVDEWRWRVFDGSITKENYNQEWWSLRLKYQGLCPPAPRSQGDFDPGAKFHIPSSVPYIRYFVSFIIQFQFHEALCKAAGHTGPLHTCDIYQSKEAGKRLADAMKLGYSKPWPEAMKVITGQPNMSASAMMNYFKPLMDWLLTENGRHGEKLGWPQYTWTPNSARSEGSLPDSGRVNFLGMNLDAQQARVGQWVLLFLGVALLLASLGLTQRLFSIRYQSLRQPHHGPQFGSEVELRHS
The experiment is described as follows: Inhibition of angiotensin I-converting enzyme by spectrophotometry (HHL substrate). The experiment is classed as biochemical. The conditions noted are these: enzyme from rabbit lung; 5 mM HHL; pH 8.3; 37° C., 30 min. The procedure: That is, the absorbance of hippuric acid was measured, which is liberated by incubating hippuryl-L-histidyl-L-leucine (HHL) as substrate in the presence of angiotensin I-converting enzyme extracted from rabbit lung.
as §3
The reaction mixture is as follows:
100 mM phosphate buffer (pH 8.3)
10^-3 ~10^-9 M enzyme inhibitor
0.25 ml of the above mixture was incubated at 37° C. for 30 minutes and the reaction was stopped by adding 0.25 ml of 1 N hydrochloric acid. To this solution, 1.5 ml of ethyl acetate was added in order to extract hippuric acid. 1.0 ml of ethyl acetate layer was collected and evaporated to dryness, and the residue obtained was dissolved in 1.0 ml of water.
The inhibitory activity of angiotensin I-converting enzyme was calculated by the following formula: [formula]

For `CC(C)=CCCC(C)CC1SC[C@@H](C(=O)O)N1C(=O)[C@H](C)CS` (stereo partly drawn) [Compound 2], in experiment [1], the AC50 was 19 nM. The IC50 is 480 nM in experiment [2] and 3200 nM in experiment [3].

Consider `O=C(O)[C@@H]1CSC(c2ccccc2)N1C(=O)CS` (stereo partly drawn) [Compound 12], for which the AC50 in experiment [1] is 19 nM. In addition, the IC50 in experiment [2] is 900 nM; in experiment [3] it was 13000 nM.

On to `O=C(O)[C@@H]1CSC(c2ccccc2)N1C(=O)CCS` (stereo partly drawn) [Compound 16], for which the AC50 in experiment [1] is 2.6 nM. Further, the IC50 in experiment [2] stood at 240 nM; in experiment [3], 450 nM.

For `Cc1ccc(C2SC[C@@H](C(=O)O)N2C(=O)[C@H](C)CS)cc1` (stereo partly drawn) [Compound 22], the AC50 in experiment [1] was determined as 3.9 nM. Also, the IC50 in experiment [2] was found to be 170 nM; in experiment [3], 540 nM.

In the case of `O=C(O)[C@@H]1CSC(c2ccccc2Cl)N1C(=O)CCS` (stereo partly drawn) [Compound 24], in experiment [1], the AC50 worked out at 16 nM. Besides, the half-inhibitory concentration (IC50) worked out at 700 nM in experiment [2] and 3600 nM in experiment [3].

On to `C[C@H](CS)C(=O)N1C(c2cccc([N+](=O)[O-])c2)SC[C@H]1C(=O)O` (stereo partly drawn) [Compound 34], for which the AC50 in experiment [1] came to 2.5 nM. Moreover, the IC50 in experiment [2] came out at 180 nM; in experiment [3], 400 nM.

In the case of `O=C(O)[C@@H]1CSC(c2ccccc2O)N1C(=O)CS` (stereo partly drawn) [Compound 44], the AC50 in experiment [1] is 5 nM. In addition, the results for the concentration for half-maximal inhibition (IC50) in experiment [2] and in experiment [3] were 560 nM and 2200 nM, respectively.

Take `O=C(O)[C@@H]1CSC(c2cccc(O)c2)N1C(=O)CCS` (stereo partly drawn) [Compound 52]: the AC50 in experiment [1] is 1.5 nM. Further, the results for the IC50 in experiment [2] and in experiment [3] were 71 nM and 210 nM, respectively.

With `C[C@H](CS)C(=O)N1C(c2cccc(O)c2)SC[C@H]1C(=O)O` (stereo partly drawn) [Compound 54], in experiment [1], the AC50 was found to be 1.7 nM. For the same compound, the IC50 in experiment [2] was found to be 150 nM; in experiment [3] it was 230 nM.

As to `O=C(O)[C@@H]1CSC(c2ccc(O)cc2)N1C(=O)CCS` (stereo partly drawn) [Compound 56], the AC50 in experiment [1] was determined as 5.5 nM. The figures for the IC50 in experiment [2] and in experiment [3] were 460 nM and 1200 nM, respectively.

Turning to `O=C(O)[C@@H]1CSC(c2ccc(O)c(O)c2)N1C(=O)CCS` (stereo partly drawn) [Compound 58], the AC50 in experiment [1] was found to be 5.8 nM. In addition, the IC50 in experiment [2] turned out to be 520 nM; in experiment [3], 2600 nM.

As to `C[C@H](CS)C(=O)N1C(c2cc(Cl)ccc2O)SC[C@H]1C(=O)O` (stereo partly drawn) [Compound 60], in experiment [1], the AC50 amounted to 2 nM. For the same compound, the IC50 in experiment [2] is 92 nM; in experiment [3], 75 nM.

With `COc1ccccc1C1SC[C@@H](C(=O)O)N1C(=O)[C@H](C)CS` (stereo partly drawn) [Compound 64], the AC50 in experiment [1] stood at 8 nM. Also, the IC50 in experiment [2] was found to be 500 nM; in experiment [3], 420 nM.

Take `COc1ccc(C2SC[C@@H](C(=O)O)N2C(=O)[C@H](C)CS)cc1` (stereo partly drawn) [Compound 68]: the AC50 in experiment [1] was found to be 2.1 nM. Also, the IC50 is 88 nM in experiment [2] and 750 nM in experiment [3].

As to `COc1cc(C2SC[C@@H](C(=O)O)N2C(=O)[C@H](C)CS)cc(OC)c1OC` (stereo partly drawn) [Compound 71], in experiment [1], the AC50 is 9.4 nM. For the same compound, the IC50 came to 410 nM in experiment [2] and 390 nM in experiment [3].

Regarding `COc1cccc(C2SC[C@@H](C(=O)O)N2C(=O)CCS)c1O` (stereo partly drawn) [Compound 73], the AC50 in experiment [1] is 1.1 nM. In addition, the results for the IC50 in experiment [2] and in experiment [3] were 36 nM and 93 nM, respectively.

For `COc1ccc(C2SC[C@@H](C(=O)O)N2C(=O)CCS)c(O)c1` (stereo partly drawn) [Compound 75], the AC50 in experiment [1] stood at 3.1 nM. The IC50 in experiment [2] was 140 nM; in experiment [3], 200 nM.

Regarding `COc1cc(C2SC[C@@H](C(=O)O)N2C(=O)[C@H](C)CS)ccc1O` (stereo partly drawn) [Compound 79], in experiment [1], the AC50 came out at 3.2 nM. Besides, the IC50 in experiment [2] was 210 nM; in experiment [3], 1300 nM.

Take `C[C@H](CS)C(=O)N1C(c2ccc3c(c2)OCO3)SC[C@H]1C(=O)O` (stereo partly drawn) [Compound 81]: the AC50 in experiment [1] stood at 0.94 nM. For the same compound, the IC50 in experiment [2] came to 140 nM; in experiment [3], 240 nM.

As for `C[C@H](CS)C(=O)N1C(c2cccc3ccccc23)SC[C@H]1C(=O)O` (stereo partly drawn) [Compound 83], in experiment [1], the AC50 was found to be 13 nM. For the same compound, the IC50 in experiment [2] worked out at 360 nM; in experiment [3] it was 1300 nM.

The values above are taken from patent publication US4356183A, “Antihypertensive 4-thiazolidinecarboxylic acids (pyridyl derivatives)” (Santen Pharmaceutical Co., Ltd., priority 1978, dated 1982).
